Data as given in the CheMixHub ionic liquid set.
± gives the uncertainty stated by the source.

Assay: xn = mol fraction of the nth substance listed
Settings: 101 kPa

CCCCCCCCCCCC[N+](C)(C)Cc1ccccc1.[Cl-] + NCC(=O)O + O
electrical conductivity [S/m]
Settings	293.15 K	298.15 K	303.15 K	308.15 K
x2 = 0.0008873, x1 = 0.0002851	0.0824 ± 0.0052	0.0924 ± 0.0058	0.103 ± 0.0064	0.116 ± 0.0071
x2 = 0.0008873, x1 = 0.0003053	0.0856 ± 0.0054	0.0961 ± 0.006	0.107 ± 0.0066	0.12 ± 0.0074
x2 = 0.0008873, x1 = 0.0003201	0.0879 ± 0.0056	0.0988 ± 0.0062	0.11 ± 0.0068	0.124 ± 0.0076
x2 = 0.0008874, x1 = 0.0001939	0.0676 ± 0.0043	0.0753 ± 0.0047	0.0835 ± 0.0052	0.0926 ± 0.0057
x2 = 0.0008874, x1 = 0.0002197	0.072 ± 0.0045	0.0803 ± 0.005	0.0893 ± 0.0055	0.0992 ± 0.0061
x2 = 0.0008874, x1 = 0.0002434	0.0759 ± 0.0046	0.0848 ± 0.0052	0.0944 ± 0.0058	0.105 ± 0.0064
x2 = 0.0008874, x1 = 0.0002654	0.0793 ± 0.005	0.0888 ± 0.0056	0.099 ± 0.0061	0.11 ± 0.0068
x2 = 0.0008875, x1 = 5.836e-05	0.0233 ± 0.0015	0.0261 ± 0.0016	0.0289 ± 0.0018	0.0319 ± 0.002
x2 = 0.0008875, x1 = 8.059e-05	0.0317 ± 0.002	0.0355 ± 0.0022	0.0393 ± 0.0025	0.0433 ± 0.0027
x2 = 0.0008875, x1 = 0.0001014	0.0394 ± 0.0025	0.0441 ± 0.0028	0.0489 ± 0.003	0.0538 ± 0.0033
x2 = 0.0008875, x1 = 0.0001212	0.0469 ± 0.003	0.0524 ± 0.0033	0.0581 ± 0.0036	0.0639 ± 0.004
x2 = 0.0008875, x1 = 0.0001444	0.0552 ± 0.0035	0.0617 ± 0.0039	0.0682 ± 0.0042	0.0751 ± 0.0046
x2 = 0.0008875, x1 = 0.0001686	0.0624 ± 0.0039	0.0695 ± 0.0043	0.077 ± 0.0048	0.085 ± 0.0052
x2 = 0.001759, x1 = 5.744e-05	0.0233 ± 0.0015	0.026 ± 0.0016	0.0289 ± 0.0018	0.0319 ± 0.002
x2 = 0.001759, x1 = 7.9e-05	0.0314 ± 0.002	0.0351 ± 0.0022	0.039 ± 0.0025	0.0429 ± 0.0027
x2 = 0.001759, x1 = 9.947e-05	0.0391 ± 0.0025	0.0437 ± 0.0028	0.0485 ± 0.0031	0.0534 ± 0.0034
x2 = 0.001759, x1 = 0.0001207	0.0469 ± 0.003	0.0525 ± 0.0033	0.0582 ± 0.0037	0.064 ± 0.0041
x2 = 0.001759, x1 = 0.0001453	0.0558 ± 0.0035	0.0624 ± 0.0039	0.069 ± 0.0043	0.0758 ± 0.0047
x2 = 0.001759, x1 = 0.0001712	0.0628 ± 0.004	0.0701 ± 0.0044	0.0775 ± 0.0048	0.0856 ± 0.0053
x2 = 0.001759, x1 = 0.0001971	0.0678 ± 0.0043	0.0758 ± 0.0047	0.0841 ± 0.0052	0.0931 ± 0.0057
x2 = 0.001759, x1 = 0.0002216	0.072 ± 0.0046	0.0806 ± 0.005	0.0896 ± 0.0055	0.0995 ± 0.0061
x2 = 0.001759, x1 = 0.0002442	0.0758 ± 0.0046	0.0849 ± 0.0052	0.0946 ± 0.0058	0.105 ± 0.0064
x2 = 0.001759, x1 = 0.000265	0.079 ± 0.005	0.0888 ± 0.0055	0.099 ± 0.0061	–
x2 = 0.001759, x1 = 0.000284	0.0821 ± 0.0052	0.0923 ± 0.0058	0.103 ± 0.0063	–
x2 = 0.001759, x1 = 0.0003018	0.0849 ± 0.0054	0.0956 ± 0.006	0.107 ± 0.0066	–
x2 = 0.001759, x1 = 0.0003141	0.087 ± 0.0055	0.098 ± 0.0061	0.11 ± 0.0068	–
